Assay results: ChEMBL document CHEMBL1687815, “In vivo selection of a missense mutation in adeR and conversion of the novel blaOXA-164 gene into blaOXA-58 in carbapenem-resistant Acinetobacter baumannii isolates from a hospitalized patient” (2010)
Activity calls are given as the source filed them.

What was measured:
[1] = test system: Acinetobacter baumannii; test: Antimicrobial activity against Acinetobacter baumannii isolate G expressing beta-lactamase OXA-58 isolated from tracheal secretion of patient by vitek 2 system
[2] = test system: Acinetobacter baumannii; test: Antimicrobial activity against Acinetobacter baumannii isolate K expressing beta-lactamase OXA-58 isolated from blood culture of patient by vitek 2 system
[3] = test system: Acinetobacter baumannii; test: Antimicrobial activity against Acinetobacter baumannii isolate B expressing beta-lactamase OXA-164 isolated from tracheal secretion of patient by vitek 2 system
[4] = test system: Acinetobacter baumannii; test: Antimicrobial activity against Acinetobacter baumannii isolate M expressing beta-lactamase OXA-58 isolated from tracheal secretion of patient by vitek 2 system
[5] = test system: Acinetobacter baumannii; test: Antimicrobial activity against Acinetobacter baumannii isolate E expressing beta-lactamase OXA-164 isolated from tracheal secretion of patient by vitek 2 system
[6] = test system: Acinetobacter baumannii; test: Antimicrobial activity against Acinetobacter baumannii isolate D expressing beta-lactamase OXA-164 isolated from tracheal secretion of patient by vitek 2 system
[7] = test system: Acinetobacter baumannii; test: Antimicrobial activity against Acinetobacter baumannii isolate L expressing beta-lactamase OXA-58 isolated from tracheal secretion of patient by vitek 2 system
[8] = test system: Acinetobacter baumannii; test: Antimicrobial activity against Acinetobacter baumannii isolate I expressing beta-lactamase OXA-58 isolated from tracheal secretion of patient by vitek 2 system
[9] = test system: Acinetobacter baumannii; test: Antimicrobial activity against Acinetobacter baumannii isolate J expressing beta-lactamase OXA-58 isolated from bedsore by vitek 2 system
[10] = test system: Acinetobacter baumannii; test: Antimicrobial activity against Acinetobacter baumannii isolate C expressing beta-lactamase OXA-164 isolated from tracheal secretion of patient by vitek 2 system
[11] = test system: Acinetobacter baumannii; test: Antimicrobial activity against Acinetobacter baumannii isolate F expressing beta-lactamase OXA-164 isolated from tracheostoma of patient by vitek 2 system
[12] = test system: Acinetobacter baumannii; test: Antimicrobial activity against Acinetobacter baumannii isolate H expressing beta-lactamase OXA-58 isolated from tracheal secretion of patient by vitek 2 system
[13] = test system: Acinetobacter baumannii; test: Antimicrobial activity against Acinetobacter baumannii isolate A expressing beta-lactamase OXA-164 isolated from tracheal secretion of patient by vitek 2 system
[14] = test system: Acinetobacter baumannii; test: Antimicrobial activity against Acinetobacter baumannii isolate K expressing beta-lactamase OXA-58 isolated from blood culture of patient by Etest
[15] = test system: Acinetobacter baumannii; test: Antimicrobial activity against Acinetobacter baumannii isolate I expressing beta-lactamase OXA-58 isolated from tracheal secretion of patient by Etest
[16] = test system: Acinetobacter baumannii; test: Antimicrobial activity against Acinetobacter baumannii isolate G expressing beta-lactamase OXA-58 isolated from tracheal secretion of patient by Etest
[17] = test system: Acinetobacter baumannii; test: Antimicrobial activity against Acinetobacter baumannii isolate J expressing beta-lactamase OXA-58 isolated from bedsore by Etest
[18] = test system: Acinetobacter baumannii; test: Antimicrobial activity against Acinetobacter baumannii isolate M expressing beta-lactamase OXA-58 isolated from tracheal secretion of patient by Etest
[19] = test system: Acinetobacter baumannii; test: Antimicrobial activity against Acinetobacter baumannii isolate F expressing beta-lactamase OXA-164 isolated from tracheostoma of patient by Etest
[20] = test system: Acinetobacter baumannii; test: Antimicrobial activity against Acinetobacter baumannii isolate D expressing beta-lactamase OXA-164 isolated from tracheal secretion of patient by Etest
[21] = test system: Acinetobacter baumannii; test: Antimicrobial activity against Acinetobacter baumannii isolate B expressing beta-lactamase OXA-164 isolated from tracheal secretion of patient by Etest
[22] = test system: Acinetobacter baumannii; test: Antimicrobial activity against Acinetobacter baumannii isolate E expressing beta-lactamase OXA-164 isolated from tracheal secretion of patient by Etest
[23] = test system: Acinetobacter baumannii; test: Antimicrobial activity against Acinetobacter baumannii isolate A expressing beta-lactamase OXA-164 isolated from tracheal secretion of patient by Etest
[24] = test system: Acinetobacter baumannii; test: Antimicrobial activity against Acinetobacter baumannii isolate H expressing beta-lactamase OXA-58 isolated from tracheal secretion of patient by Etest
[25] = test system: Acinetobacter baumannii; test: Antimicrobial activity against Acinetobacter baumannii isolate L expressing beta-lactamase OXA-58 isolated from tracheal secretion of patient by Etest
[26] = test system: Acinetobacter baumannii; test: Antimicrobial activity against Acinetobacter baumannii isolate C expressing beta-lactamase OXA-164 isolated from tracheal secretion of patient by Etest

Measured: MIC

CC(C)(O/N=C(\C(=O)N[C@@H]1C(=O)N2C(C(=O)[O-])=C(C[n+]3ccccc3)CS[C@H]12)c1csc(N)n1)C(=O)O
inactive: [1] | [2] | [3] | [4] | [5] | [6] | [7] | [8] | [9] | [10] | [11] | [12] | [13]

CO/N=C(\C(=O)N[C@@H]1C(=O)N2C(C(=O)O)=C(COC(C)=O)CS[C@H]12)c1csc(N)n1
inactive: [1] | [2] | [3] | [4] | [5] | [6] | [7] | [8] | [9] | [10] | [11] | [12] | [13]

CO/N=C(\C(=O)N[C@@H]1C(=O)N2C(C(=O)[O-])=C(C[N+]3(C)CCCC3)CS[C@H]12)c1csc(N)n1
inactive: [1] | [2] | [3] | [4] | [5] | [6] | [7] | [8] | [9] | [10] | [11] | [12] | [13]

CO[C@@]1(NC(=O)Cc2cccs2)C(=O)N2C(C(=O)O)=C(COC(N)=O)CS[C@@H]21
inactive: [1] | [2] | [3] | [4] | [5] | [6] | [7] | [8] | [9] | [10] | [11] | [12] | [13]

COc1c(N2C[C@@H]3CCCN[C@@H]3C2)c(F)cc2c(=O)c(C(=O)O)cn(C3CC3)c12
inactive: [1] | [2] | [3] | [4] | [5] | [6] | [7] | [8] | [9] | [10] | [11] | [12] | [13]

C[C@@H]1O[C@@H]1P(=O)(O)O
inactive: [1] | [2] | [3] | [4] | [5] | [6] | [7] | [8] | [9] | [10] | [11] | [12] | [13]

O=C(O)c1cn(C2CC2)c2cc(N3CCNCC3)c(F)cc2c1=O
inactive: [1] | [2] | [3] | [4] | [5] | [6] | [7] | [8] | [9] | [10] | [12] | [13]

NCC[C@H](O)C(=O)N[C@@H]1C[C@H](N)[C@@H](O[C@H]2O[C@H](CN)[C@@H](O)[C@H](O)[C@H]2O)[C@H](O)[C@H]1O[C@H]1O[C@H](CO)[C@@H](O)[C@H](N)[C@H]1O [AMIKACIN]
≥ 64 µg/mL: [1] | [2] | [3] | [4] | [7] | [8] | [9] | [11] | [12] | [13]
≤ 2 µg/mL: [5] | [6]
32 µg/mL: [10]

C[C@H]1COc2c(N3CCN(C)CC3)c(F)cc3c(=O)c(C(=O)O)cn1c23.C[C@H]1COc2c(N3CCN(C)CC3)c(F)cc3c(=O)c(C(=O)O)cn1c23.O [LEVOFLOXACIN]
16 µg/mL: [22]
8 µg/mL: [19] | [20] | [21] | [23] | [26]
≥ 64 µg/mL: [14] | [15] | [16] | [17] | [18] | [24] | [25]

CN(C)c1cc(NC(=O)CNC(C)(C)C)c(O)c2c1C[C@H]1C[C@H]3[C@H](N(C)C)C(O)=C(C(N)=O)C(=O)[C@@]3(O)C(O)=C1C2=O [TIGECYCLINE]
4 µg/mL: [19] | [20] | [21] | [22] | [23] | [26]
≥ 8 µg/mL: [1] | [2] | [4] | [7] | [8] | [9] | [12]
16 µg/mL: [14] | [15] | [16] | [17] | [18] | [24] | [25]
2 µg/mL: [3] | [5] | [6] | [10] | [11] | [13]

NC[C@H]1O[C@H](O[C@H]2[C@H](O)[C@@H](O[C@H]3O[C@H](CO)[C@@H](O)[C@H](N)[C@H]3O)[C@H](N)C[C@@H]2N)[C@H](N)C[C@@H]1O [TOBRAMYCIN]
8 µg/mL: [2] | [9]
2 µg/mL: [19] | [20] | [22] | [23] | [26]
4 µg/mL: [15] | [16] | [18] | [21] | [24] | [25]
≤ 1 µg/mL: [1] | [3] | [4] | [5] | [6] | [7] | [8] | [10] | [11] | [12] | [13]
16 µg/mL: [14] | [17]

COLISTIN
< 1 µg/mL: [1] | [2] | [3] | [4] | [5] | [6] | [7] | [8] | [9] | [10] | [11] | [12] | [13]

GENTAMICIN
inactive: [1] | [2] | [3] | [4] | [5] | [6] | [7] | [8] | [9] | [10] | [11] | [12] | [13]
